Data taken from ChEMBL document CHEMBL5678818, “Discovery of potent SOS1 inhibitors that block RAS activation via disruption of the RAS-SOS1 interaction” (Proc Natl Acad Sci U S A, 2019).

Experiments:
[1] = biological target: Tyrosine-protein kinase ABL1 (Homo sapiens) (UniProt P00519); assay: Inhibition of nonphosphorylated ABL1 (unknown origin) assessed as residual activity at 1000 nM by KINOMEscan analysis relative to control
[2] = biological target: T1, Serine/threonine-protein kinase D1 (Homo sapiens) (UniProt Q15139); assay: Inhibition of PRKD1 (unknown origin) assessed as residual activity at 1000 nM by KINOMEscan analysis relative to control
T1 sequence (whole entry): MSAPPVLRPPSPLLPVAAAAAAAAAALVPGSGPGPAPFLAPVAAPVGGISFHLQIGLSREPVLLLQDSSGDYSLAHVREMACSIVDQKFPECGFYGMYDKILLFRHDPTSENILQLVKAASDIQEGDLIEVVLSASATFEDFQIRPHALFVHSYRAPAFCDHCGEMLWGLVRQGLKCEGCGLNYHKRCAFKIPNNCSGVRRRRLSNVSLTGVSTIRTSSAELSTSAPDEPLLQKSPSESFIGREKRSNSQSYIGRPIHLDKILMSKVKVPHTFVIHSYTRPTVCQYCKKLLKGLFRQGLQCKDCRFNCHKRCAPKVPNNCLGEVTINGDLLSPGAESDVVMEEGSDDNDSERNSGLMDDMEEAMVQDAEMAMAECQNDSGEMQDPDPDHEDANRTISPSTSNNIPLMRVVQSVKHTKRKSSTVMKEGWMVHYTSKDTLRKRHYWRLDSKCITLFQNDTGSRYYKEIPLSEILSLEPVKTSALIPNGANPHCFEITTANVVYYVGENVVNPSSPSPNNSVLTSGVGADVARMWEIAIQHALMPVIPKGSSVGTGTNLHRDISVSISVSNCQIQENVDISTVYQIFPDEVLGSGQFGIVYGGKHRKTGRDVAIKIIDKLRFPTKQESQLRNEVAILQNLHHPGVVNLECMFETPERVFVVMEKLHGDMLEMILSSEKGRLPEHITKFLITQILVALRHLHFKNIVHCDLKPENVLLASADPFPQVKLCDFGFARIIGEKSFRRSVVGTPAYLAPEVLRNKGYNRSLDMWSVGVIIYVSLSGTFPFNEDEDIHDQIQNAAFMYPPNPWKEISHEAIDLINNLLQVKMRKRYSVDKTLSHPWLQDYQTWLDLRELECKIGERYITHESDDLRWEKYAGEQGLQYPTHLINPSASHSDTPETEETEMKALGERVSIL

[3] = biological target: Fibroblast growth factor receptor 3 (Homo sapiens) (UniProt P22607); assay: Inhibition of FGFR3 (unknown origin) assessed as residual activity at 1000 nM by KINOMEscan analysis relative to control
[4] = biological target: Dual specificity protein kinase CLK3 (Homo sapiens) (UniProt P49761); assay: Inhibition of CLK3 (unknown origin) assessed as residual activity at 1000 nM by KINOMEscan analysis relative to control
[5] = biological target: MAP/microtubule affinity-regulating kinase 3 (Homo sapiens) (UniProt P27448); assay: Inhibition of MARK3 (unknown origin) assessed as residual activity at 1000 nM by KINOMEscan analysis relative to control
[6] = biological target: T2, Dual serine/threonine and tyrosine protein kinase (Homo sapiens) (UniProt Q6XUX3); assay: Inhibition of RIPK5 (unknown origin) assessed as residual activity at 1000 nM by KINOMEscan analysis relative to control
T2 sequence (whole entry): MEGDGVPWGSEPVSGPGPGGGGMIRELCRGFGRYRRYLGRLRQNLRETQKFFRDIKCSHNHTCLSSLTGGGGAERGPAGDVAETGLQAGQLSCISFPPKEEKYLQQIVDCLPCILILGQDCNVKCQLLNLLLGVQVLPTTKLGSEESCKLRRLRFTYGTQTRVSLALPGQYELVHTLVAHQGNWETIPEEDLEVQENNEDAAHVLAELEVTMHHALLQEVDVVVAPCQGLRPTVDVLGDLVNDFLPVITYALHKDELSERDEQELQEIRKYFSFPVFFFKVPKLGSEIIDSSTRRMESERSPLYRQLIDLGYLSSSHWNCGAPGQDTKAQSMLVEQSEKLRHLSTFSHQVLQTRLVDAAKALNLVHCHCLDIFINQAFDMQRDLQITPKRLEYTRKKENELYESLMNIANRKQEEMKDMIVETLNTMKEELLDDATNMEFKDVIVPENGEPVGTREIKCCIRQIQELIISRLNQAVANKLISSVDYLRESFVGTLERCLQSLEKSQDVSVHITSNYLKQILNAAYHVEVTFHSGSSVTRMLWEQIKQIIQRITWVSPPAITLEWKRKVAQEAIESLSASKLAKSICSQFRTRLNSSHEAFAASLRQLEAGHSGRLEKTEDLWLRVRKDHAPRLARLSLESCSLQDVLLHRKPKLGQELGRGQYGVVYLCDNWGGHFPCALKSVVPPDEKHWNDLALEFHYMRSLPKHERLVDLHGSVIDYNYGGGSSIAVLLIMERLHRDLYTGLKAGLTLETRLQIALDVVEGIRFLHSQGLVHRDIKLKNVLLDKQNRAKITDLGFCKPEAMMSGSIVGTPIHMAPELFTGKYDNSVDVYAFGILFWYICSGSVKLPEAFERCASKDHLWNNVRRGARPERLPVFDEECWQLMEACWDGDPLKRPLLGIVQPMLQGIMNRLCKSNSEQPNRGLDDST

[7] = biological target: T3, Myotonin-protein kinase (Homo sapiens) (UniProt Q09013); assay: Inhibition of DMPK (unknown origin) assessed as residual activity at 1000 nM by KINOMEscan analysis relative to control
T3 sequence (whole entry): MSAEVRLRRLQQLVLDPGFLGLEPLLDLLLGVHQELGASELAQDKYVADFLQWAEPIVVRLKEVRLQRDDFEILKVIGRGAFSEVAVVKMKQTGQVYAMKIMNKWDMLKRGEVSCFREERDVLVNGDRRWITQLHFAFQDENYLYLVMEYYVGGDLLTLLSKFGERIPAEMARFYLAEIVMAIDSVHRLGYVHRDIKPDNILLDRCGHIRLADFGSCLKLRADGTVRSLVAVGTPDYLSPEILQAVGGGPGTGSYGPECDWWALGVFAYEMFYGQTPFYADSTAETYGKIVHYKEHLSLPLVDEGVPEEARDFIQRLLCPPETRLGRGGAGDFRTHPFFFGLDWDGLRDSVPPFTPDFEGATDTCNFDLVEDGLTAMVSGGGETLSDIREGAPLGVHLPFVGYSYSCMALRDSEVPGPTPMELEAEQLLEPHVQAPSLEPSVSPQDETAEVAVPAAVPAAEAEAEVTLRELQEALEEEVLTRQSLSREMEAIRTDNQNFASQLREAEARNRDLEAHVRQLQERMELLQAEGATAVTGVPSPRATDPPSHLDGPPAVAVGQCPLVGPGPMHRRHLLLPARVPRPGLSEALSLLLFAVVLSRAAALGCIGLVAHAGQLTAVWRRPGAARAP

Fibroblast growth factor receptor 3 (Homo sapiens), sequence (P22607 23-806 limits assumed): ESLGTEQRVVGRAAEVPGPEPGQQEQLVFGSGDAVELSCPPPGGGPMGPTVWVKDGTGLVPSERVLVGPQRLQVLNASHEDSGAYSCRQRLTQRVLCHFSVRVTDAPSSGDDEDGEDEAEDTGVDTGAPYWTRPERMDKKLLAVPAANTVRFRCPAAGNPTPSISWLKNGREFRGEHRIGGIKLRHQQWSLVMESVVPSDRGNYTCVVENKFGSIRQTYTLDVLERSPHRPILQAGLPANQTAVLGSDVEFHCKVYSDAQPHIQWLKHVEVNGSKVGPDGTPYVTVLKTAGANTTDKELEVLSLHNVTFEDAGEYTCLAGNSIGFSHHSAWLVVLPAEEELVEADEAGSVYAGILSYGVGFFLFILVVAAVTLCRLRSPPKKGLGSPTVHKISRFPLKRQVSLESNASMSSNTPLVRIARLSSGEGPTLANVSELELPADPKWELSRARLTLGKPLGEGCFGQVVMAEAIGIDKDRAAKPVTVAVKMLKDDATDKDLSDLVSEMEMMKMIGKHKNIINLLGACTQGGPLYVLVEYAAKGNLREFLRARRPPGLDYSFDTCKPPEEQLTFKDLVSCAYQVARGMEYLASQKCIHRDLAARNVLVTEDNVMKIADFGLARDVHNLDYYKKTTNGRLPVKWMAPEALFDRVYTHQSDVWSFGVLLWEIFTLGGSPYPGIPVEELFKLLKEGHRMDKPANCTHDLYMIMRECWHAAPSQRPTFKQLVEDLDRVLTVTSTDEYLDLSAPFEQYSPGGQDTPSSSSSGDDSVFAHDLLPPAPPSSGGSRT
Tyrosine-protein kinase ABL1 (Homo sapiens), sequence (P00519 whole entry): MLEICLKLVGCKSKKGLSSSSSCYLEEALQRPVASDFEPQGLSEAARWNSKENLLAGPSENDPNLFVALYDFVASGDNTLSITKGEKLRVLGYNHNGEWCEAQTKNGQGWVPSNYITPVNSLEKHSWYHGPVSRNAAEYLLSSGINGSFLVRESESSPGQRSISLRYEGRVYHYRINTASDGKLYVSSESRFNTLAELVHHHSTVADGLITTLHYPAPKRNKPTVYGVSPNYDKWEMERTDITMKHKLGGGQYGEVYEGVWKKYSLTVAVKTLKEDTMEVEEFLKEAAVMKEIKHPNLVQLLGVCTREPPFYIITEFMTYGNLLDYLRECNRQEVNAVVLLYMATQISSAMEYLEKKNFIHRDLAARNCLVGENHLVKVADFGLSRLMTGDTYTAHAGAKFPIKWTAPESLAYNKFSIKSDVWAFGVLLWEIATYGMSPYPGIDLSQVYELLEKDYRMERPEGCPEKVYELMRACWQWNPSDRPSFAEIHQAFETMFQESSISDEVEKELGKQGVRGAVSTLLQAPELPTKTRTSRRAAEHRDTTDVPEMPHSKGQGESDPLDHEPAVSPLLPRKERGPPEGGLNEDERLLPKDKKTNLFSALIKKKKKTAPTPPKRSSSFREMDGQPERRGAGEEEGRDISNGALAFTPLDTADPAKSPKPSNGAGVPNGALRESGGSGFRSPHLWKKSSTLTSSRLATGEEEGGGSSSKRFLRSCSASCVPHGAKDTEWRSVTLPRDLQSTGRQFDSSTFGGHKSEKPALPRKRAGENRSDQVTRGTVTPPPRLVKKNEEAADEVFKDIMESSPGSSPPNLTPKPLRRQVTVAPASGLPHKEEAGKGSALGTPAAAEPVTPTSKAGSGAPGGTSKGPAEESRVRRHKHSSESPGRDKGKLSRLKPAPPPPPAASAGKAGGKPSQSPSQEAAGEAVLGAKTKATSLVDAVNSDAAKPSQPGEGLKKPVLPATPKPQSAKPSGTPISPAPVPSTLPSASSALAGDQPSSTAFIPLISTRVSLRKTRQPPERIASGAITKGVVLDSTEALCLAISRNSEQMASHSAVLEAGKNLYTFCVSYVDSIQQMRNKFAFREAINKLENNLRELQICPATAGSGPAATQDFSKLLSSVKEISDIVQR
MAP/microtubule affinity-regulating kinase 3 (Homo sapiens), sequence (P27448 whole entry, looked up): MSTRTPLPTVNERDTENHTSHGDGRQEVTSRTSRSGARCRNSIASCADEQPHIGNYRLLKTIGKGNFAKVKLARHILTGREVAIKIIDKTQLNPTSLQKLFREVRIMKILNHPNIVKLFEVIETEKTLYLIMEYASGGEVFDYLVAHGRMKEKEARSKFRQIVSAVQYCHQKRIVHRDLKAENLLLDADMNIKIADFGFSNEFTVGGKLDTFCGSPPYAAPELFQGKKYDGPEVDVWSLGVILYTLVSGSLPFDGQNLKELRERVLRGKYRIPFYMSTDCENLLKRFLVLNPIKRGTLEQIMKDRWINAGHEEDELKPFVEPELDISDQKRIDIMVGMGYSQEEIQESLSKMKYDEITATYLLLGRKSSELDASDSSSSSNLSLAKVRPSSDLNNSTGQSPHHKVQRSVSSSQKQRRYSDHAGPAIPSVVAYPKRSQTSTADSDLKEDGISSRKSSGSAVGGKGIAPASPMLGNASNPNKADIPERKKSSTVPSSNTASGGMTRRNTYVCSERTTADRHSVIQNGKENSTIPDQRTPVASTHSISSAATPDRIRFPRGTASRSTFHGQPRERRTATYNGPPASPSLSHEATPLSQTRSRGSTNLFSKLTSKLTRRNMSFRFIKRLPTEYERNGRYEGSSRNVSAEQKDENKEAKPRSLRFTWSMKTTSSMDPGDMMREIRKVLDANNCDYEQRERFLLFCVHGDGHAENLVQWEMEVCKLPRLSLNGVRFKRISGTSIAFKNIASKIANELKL
Dual specificity protein kinase CLK3 (Homo sapiens), sequence (P49761 whole entry, looked up): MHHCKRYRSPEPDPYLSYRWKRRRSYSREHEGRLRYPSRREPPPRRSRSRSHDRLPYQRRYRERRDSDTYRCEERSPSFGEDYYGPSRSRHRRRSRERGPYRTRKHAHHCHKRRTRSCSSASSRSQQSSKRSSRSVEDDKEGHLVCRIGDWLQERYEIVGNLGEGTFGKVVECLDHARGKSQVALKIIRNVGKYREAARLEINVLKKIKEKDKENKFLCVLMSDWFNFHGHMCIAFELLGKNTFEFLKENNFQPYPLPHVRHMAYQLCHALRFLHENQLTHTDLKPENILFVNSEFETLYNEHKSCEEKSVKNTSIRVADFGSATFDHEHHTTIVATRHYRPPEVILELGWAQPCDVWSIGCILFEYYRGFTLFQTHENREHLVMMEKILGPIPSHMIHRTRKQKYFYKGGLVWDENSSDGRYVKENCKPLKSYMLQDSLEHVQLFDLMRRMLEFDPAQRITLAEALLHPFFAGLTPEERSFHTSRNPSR

SMILES	Activity [1] [%]	Activity [2] [%]	Activity [3] [%]	Activity [4] [%]	Activity [5] [%]	Activity [6] [%]	Activity [7] [%]
COc1cc2nc(C)nc(N[C@H](C)c3cccc(-c4cn[nH]c4)c3)c2cc1OC	54	85	100	81	100	77	87
COc1cc2ncnc(N[C@H](C)c3cccc4ccccc34)c2cc1OC	100	95	100	100	64	86	100
